This note sets out measurements from ChEMBL document CHEMBL2417417, “Chemical variation from the neoantimycin depsipeptide assembly line” (Bioorg Med Chem Lett, 2013).

Calls of active or inactive are those of the source. No cut-off for these calls is given here.

In the experiment the test system is HT-29. Kind of experiment: Antiproliferative activity against human HT-29 cells at 100 uM up to 15 hrs by non-radioactive cell proliferation assay. Type of experiment: functional, cell-based.
As for `CC(C)[C@@H]1OC(=O)[C@@H](NC(=O)c2cccc(N)c2O)[C@H](C)OC(=O)[C@H](C(C)C)OC(=O)C(C)(C)[C@@H](O)[C@@H](Cc2ccccc2)OC1=O`, the outcome was inactive.
As for `CC[C@H](C)[C@@H]1OC(=O)C(C)(C)[C@@H](O)[C@@H](Cc2ccccc2)OC(=O)[C@H](C(C)C)OC(=O)[C@@H](NC(=O)c2cccc(NC=O)c2O)[C@H](C)OC1=O`, the entry is “inactive”; as for `CC[C@H](C)[C@@H]1OC(=O)C(C)(C)[C@@H](O)[C@@H](Cc2ccccc2)OC(=O)[C@H](C)OC(=O)[C@@H](NC(=O)c2cccc(N)c2O)[C@H](C)OC1=O`, “inactive”.
As to `CC[C@H](C)[C@@H]1OC(=O)C(C)(C)[C@@H](O)[C@@H](Cc2ccccc2)OC(=O)[C@H](C(C)C)OC(=O)[C@@H](NC(=O)c2cccc(N)c2O)[C@H](C)OC1=O`, the outcome was inactive.
Take `CC(C)[C@@H]1OC(=O)[C@@H](NC(=O)c2cccc(NC=O)c2O)[C@H](C)OC(=O)[C@H](C(C)C)OC(=O)C(C)(C)[C@@H](O)[C@@H](Cc2ccccc2)OC1=O`: the result was inactive.
Regarding `CC[C@H](C)[C@@H]1OC(=O)C(C)(C)[C@@H](O)[C@@H](Cc2ccccc2)OC(=O)[C@H](C)OC(=O)[C@@H](NC(=O)c2cccc(NC=O)c2O)[C@H](C)OC1=O`, the result was inactive.
